Legend:
[1] = system: HeLa cells; conditions: read-out: cytotoxic IC50 in HeLa cells; cited from earlier work
[2] = biological target: T1, KDM4A (Homo sapiens, UniProt O75164); test: Demethylation of calf thymus H3 by KDM4A, western blot; conditions: 10 μM enzyme, 100 μM inhibitor, 5 μM H3, 37 °C, 30 min
T1 sequence (O75164 1-347): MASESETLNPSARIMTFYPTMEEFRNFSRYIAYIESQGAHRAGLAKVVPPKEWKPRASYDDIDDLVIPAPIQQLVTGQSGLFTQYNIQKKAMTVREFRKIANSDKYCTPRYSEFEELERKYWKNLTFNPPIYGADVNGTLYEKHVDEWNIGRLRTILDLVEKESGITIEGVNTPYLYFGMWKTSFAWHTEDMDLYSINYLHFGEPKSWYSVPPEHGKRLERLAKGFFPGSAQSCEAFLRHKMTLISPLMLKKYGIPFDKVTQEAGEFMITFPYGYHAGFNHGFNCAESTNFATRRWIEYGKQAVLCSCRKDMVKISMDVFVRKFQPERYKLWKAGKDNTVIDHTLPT

[3] = biological target: T1, KDM4A
[4] = biological target: T2, KDM4B (Homo sapiens, UniProt O94953); conditions: 10 μM enzyme, 100 μM inhibitor, 5 μM H3, 37 °C, 30 min
T2 sequence (O94953 1-348): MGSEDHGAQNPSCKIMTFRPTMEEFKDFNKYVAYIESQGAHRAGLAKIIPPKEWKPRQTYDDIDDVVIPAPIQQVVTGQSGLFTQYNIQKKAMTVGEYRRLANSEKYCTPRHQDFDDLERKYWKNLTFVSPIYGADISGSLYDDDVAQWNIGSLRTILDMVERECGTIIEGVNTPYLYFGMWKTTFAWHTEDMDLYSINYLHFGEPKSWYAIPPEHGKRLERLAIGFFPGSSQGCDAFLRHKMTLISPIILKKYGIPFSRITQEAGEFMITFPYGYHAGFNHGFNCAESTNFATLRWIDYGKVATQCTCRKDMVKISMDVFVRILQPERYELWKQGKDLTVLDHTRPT

[5] = system: cultured cells; conditions: as a prodrug; cited from earlier work
[6] = biological target: T2, KDM4B
[7] = system: LNCaP cells; conditions: 5–20 μM, over 6 days
[8] = system: H3K9me3 in LNCaP cells; test: Histone H3 methylation level in LNCaP cells, western blot; assay type: cell-based
[9] = system: PNT2 cells; test: PNT2 normal prostate cell growth; conditions: 5–20 μM, over 6 days
[10] = system: LNCaP cells; test: Microarray gene expression in LNCaP cells; assay type: cell-based; conditions: 50 μM, 3 days
[11] = system: RWPE1; test: RWPE1 normal prostate cell growth; conditions: 20 μM treatment

Row | demethylation of histone H3K9me3 and H3K36me3 by KDM4A [2] | activity [3] [%] | demethylation of histone H3K9me3 and H3K36me3 by KDM4B [4] | activity [6] [%] | inhibitory mode against H3_3–17K9me3, KDM4A [3] | SMILES | IC50 [1] [µM] | cytotoxic IC50 in cultured cells [5] | growth of LNCaP cells [7] | demethylating activity toward H3K9me3 in LNCaP cells ([8]; 5 μM, 24 h) | level of H3K9me3 in LNCaP cells ([8]; 10 µM, 3 days) | signals of H3K4me2, H3K27me3, H3K27me2, H3K36me3, H3K36me2 and H3K79me2 in LNCaP cells ([8]; 10 µM, 3 days, control vs treated) | cellular level of H3K9me3, dose-dependent ([8]; 1–100 μM, 24 h) | effect on PNT2 cells [9] | expression of oncogenes IGF1R, FGFR3, CCNE2, AURKA and AURKB [10] | expression of tumor suppressors RB1 and CDH1 [10] | growth of RWPE1 cells [11]
1 | – | – | – | – | – | O=C(O)c1ccc(O)c2ncccc12 [5-carboxy-8HQ] | 86.5 | – | – | – | – | – | – | – | – | – | –
2 | blocked the demethylation activity | 21 | blocked the demethylation activity | 24 | – | O=C(O)c1ccnc(C(=O)O)c1 [Compound 2, pyridine 2,4-dicarboxylic acid] | – | millimolar range | – | – | – | – | – | – | – | – | –
3 | blocked the demethylation activity | – | – | – | competitive | O=[N+]([O-])c1cc([N+](=O)[O-])c(/C=C/c2ccc(Cl)c(Cl)c2)cc1/C=C/c1ccc(Cl)c(Cl)c1 [Compound 4, 1,5-bis[(E)-2-(3,4-dichlorophenyl)ethenyl]-2,4-dinitrobenzene] | – | – | significantly affected | almost completely blocked | significantly increased | essentially comparable signals | notable increase | hardly any effect | downregulation | upregulation | slightly reduced growth

— article PMC4216216 (Journal of Medicinal Chemistry, 2014)
